# Laboratory results reported in article PMC6934184, “Selective DNA-PKcs inhibition extends the therapeutic index of localized radiotherapy and chemotherapy” (The Journal of Clinical Investigation, 2019).
# Molecular target: T1, STK23 (MSSK1) (Homo sapiens, UniProt Q9UPE1)
# T1 construct: purchased Thermo Fisher Scientific (Life Technologies) SelectScreen
# Experiment: SelectScreen Z'LYTE
# Format: biochemical
# Outline: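 SelectScreen broad panel; activity (Z'LYTE, Adapta) plus binding formats. ATP: Km app for CSF1R Z'LYTE; 10 for CAMK1 Adapta. Readout = % per kinase.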
# T1 sequence (Q9UPE1 whole entry): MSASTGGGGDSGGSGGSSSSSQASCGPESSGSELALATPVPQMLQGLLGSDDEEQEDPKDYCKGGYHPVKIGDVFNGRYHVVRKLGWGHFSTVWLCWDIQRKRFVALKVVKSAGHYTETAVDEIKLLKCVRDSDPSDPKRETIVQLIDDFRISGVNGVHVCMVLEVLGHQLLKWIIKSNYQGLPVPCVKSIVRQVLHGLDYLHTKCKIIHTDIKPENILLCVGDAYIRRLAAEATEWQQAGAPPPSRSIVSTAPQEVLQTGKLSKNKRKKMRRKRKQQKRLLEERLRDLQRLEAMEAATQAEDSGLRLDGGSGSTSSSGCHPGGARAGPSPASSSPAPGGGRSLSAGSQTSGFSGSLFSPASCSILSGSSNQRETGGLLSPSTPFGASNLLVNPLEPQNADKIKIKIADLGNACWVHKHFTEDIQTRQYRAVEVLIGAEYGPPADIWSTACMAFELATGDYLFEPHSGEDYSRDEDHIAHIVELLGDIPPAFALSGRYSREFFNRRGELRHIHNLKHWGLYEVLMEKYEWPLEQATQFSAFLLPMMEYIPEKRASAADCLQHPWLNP
structure (smiles),measurement,value
CN(C(=O)CN1CCOCC1)c1ccc2sc3c(-c4cccc5c(=O)cc(N6CC7CCC(C6)O7)oc45)cccc3c2c1 [NU5455],inhibition at 1 µM,2%
